In patent US10420755B2, “Use of ciclopirox for the treatment of congenital erythropoietic porphyria” (ASOCIACIÓN CENTRO DE INVESTIGACIÓN COOPERATIVA EN …, priority 2016, dated 2019):
Residue numbers refer to the chain shown, from its start. Where a SMILES comes first, the peptide text is derived from it. The star is where a group is joined. Cbz = O=C(OCc1ccccc1)*

Experiments:
[1] = tested on: HEK 562; test: Porphyrin accumulation (fluorocytes) by FACS in cellular model of CEP; format: cell-based, human; settings: HEK 562 CEP model
Protocol: FIG. 3: Evaluation of UROI levels in a normal HEK cellular phenotype [Up-left graph], in a human in vitro cellular model of CEP (HEK 562) [Up-right graph], in HEK 562 with a tool compound (a proteasome inhibitor termed in the data MG) [Down-left graph], and in HEK 562 with ciclopirox [Down-right graph]. The accumulation of porphyrins is measured by fluorescence spectroscopy (fluorocytes) and is depicted in as the right-shift of the population as compared to normal cells (that are concentrated on the left due to the absence of intrinsic fluorescence). The numbers in bold indicate the percentage of cells in each of the specific populations. CP=ciclopirox, MG=proteasomal inhibitor MG132.
The current supporting data disclosed is in relation to a human in vitro cellular model of CEP (HEK 562) in which there is a stable genomic defect introduced into the uroporphyrinogen III synthase enzyme which drives the accumulation of toxic porphyrins and ultimately the pathology of CEP (including the characteristic disabling and disfiguring skin lesions in CEP patients). […] The accumulation of porphyrins is measured by fluorescence spectroscopy (fluorocytes) and appear shifted to the right as compared to normal cells (which are concentrated in the left area). The numbers in bold indicate the percentage of cells in each of the specific populations. […]

[2] = tested on: HEK 562 cells; test: HPLC quantification of UROI in cellular model of CEP; format: cell-based, human; settings: equimolar quantities of MG and ciclopirox
Protocol: Inset: variation of the concentration of UROI as a function of the CP concentration, in comparison to MG and the absence of any chemical. CP=ciclopirox, MG=proteasomal inhibitor MG132, UROI=uroporphyrinogen I.
Moreover, the reduction in the fluorescence corresponds to a decrease in the intracellular concentration of UROI (see FIG. 4).
HPLC was used to separate and quantify UROI and UROIII products from PBGD and UROIIIS-C73N enzymatic assays and from cellular extracts. HPLC was carried out on a ODS Hypersil C18 column (5 um, 3×200 mm; Thermo Scientific, MA, USA). Porphyrins were separated with a 15 min isocratic elution in a mobile phase of 89% 1M ammonium acetate buffer pH 5.16 and 11% Acetonitrile, at a flow rate of 0.5 mL/min, and were detected by fluorescence with an excitation wavelength 405 nm and emission wavelength 610 nm, which is characteristic of porphyrins. The sample injection volume was […].

[3] = tested on: mouse in vivo model of CEP; settings: associated with elevation of cellular UROIIIS levels; cited from earlier work
[4] = target: T1, C73N-UROIIIS (Homo sapiens, UniProt P10746, C73N); test: In vitro enzymatic assay of UROIIIS (PBGD-coupled, as a function of PBG concentration); format: biochemical; settings: ratio UROIIIS:ciclopirox 1:5
T1 construct: made in house
T1 sequence (P10746 1-265 C73N): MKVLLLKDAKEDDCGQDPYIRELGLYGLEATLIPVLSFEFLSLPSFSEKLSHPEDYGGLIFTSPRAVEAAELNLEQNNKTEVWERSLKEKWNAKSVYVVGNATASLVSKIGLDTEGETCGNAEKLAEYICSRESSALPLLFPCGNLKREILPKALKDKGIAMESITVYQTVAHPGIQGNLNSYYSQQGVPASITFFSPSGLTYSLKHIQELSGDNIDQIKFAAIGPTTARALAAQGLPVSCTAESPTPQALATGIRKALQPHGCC
Protocol: FIG. 1: evaluation of the C73N-UROIIIS catalytic activity as a function of the PBG concentration. Porphobilinogen deaminase (PBGD) converts porphobilinogen (PBG) into preuroporphirinogen, the substrate for UROIIIS. PBGD is added in excess, acting as a reagent and the experiment reports only on the catalytic activity of the uroporphyrinogen III synthase. The solid/dashed lines correspond to the experimental points in the absence/presence of ciclopirox at a ratio UROIIIS:ciclopyrox 1:5.
The in vitro activity of a deleterious variant of the UROIIIS is measured as a function of the PBG concentration. […] C73N-UROIIIS produces reduced catalytic activity of the enzyme (FIG. 1, solid line).
The assay is based on the method described by Jordan (Shoolingin-Jordan P M et al. (1997). Methods in enzymology 281: 327-336) with some modifications. […] of porphobilinogen deaminase (PBGD) at a concentration of […] in […] of buffer (20 mM Tris-HCl pH 8.0, NaCl 150 mM, pH 8.0) is add in a 96 weels plate. […] of the porphobilinogen (PBG) substrate are then added, diluted to different concentrations (0.1, 0.4, 0.8, 1.5, 2, 3, 4 mM) in the aforementioned buffer and are incubated at 37° C. for one minute. […] Finally, we measure the change of absorbance at 405 nm with respect to the control sample in a plate ABS reader.

[5] = target: T2, UROIIIS (Homo sapiens, UniProt P10746); test: Direct binding by NMR spectroscopy
T2 construct: made in house
T2 sequence (P10746 1-265): T1 sequence (P10746 1-265 C73N) with N73C

[6] = target: T3, C73R- and P248Q-UROIIIS (Homo sapiens, UniProt P10746, C73R); test: UROIIIS-GFP protein levels (GFP fluorescence) in HEK cells stably expressing mutants; format: cell-based; settings: HEK cells expressing C73R or P248Q mutants, compared with WT-UROIIIS
T3 construct: expressed in transfected cells
T3 sequence (P10746 1-265 C73R): T1 sequence (P10746 1-265 C73N) with N73R
Excerpt: FIG. 2: A fusion construct with GFP (C73R-UROIIIS-GFP) has been stably expressed in HEK cells to measure the increase in the protein levels, by monitoring the intrinsic GFP fluorescence. […] Introduction of the pathogenic mutations (i. e. C73R or P248Q) reduces the intrinsic fluorescence due to a decrease in the intracellular UROIIIS concentration. […] For comparison, data obtained with a powerful proteasome inhibitor (MG) is also included. Dashed lines correspond to error bars. CP=ciclopirox, MG=proteasomal inhibitor MG132.
Specifically, we have tested the protein expression for the two most aggressive mutations: C73R- and P248Q-UROIIIS (FIG. 2), utilising human embryonic kidney cells (HEK) stably expressing these mutations.

[7] = tested on: murine model of CEP (P248Q+/+); test: Murine model of CEP treated with ciclopirox in food; format: in vivo, mouse
Excerpt: FIG. 5: Change in porphyrin levels and consequent effect on splenomegaly in mice treated with ciclopirox (CPX). A) Left: URO I or B) COPRO I porphyrin concentration in red blood cells (RBC) as determined by HPLC analysis for the mouse group treated with CPX (n=7, solid line) and the control group (n=9, dashed line). Right: representation of the same porphyrin levels but compared to their respective values at day 0 for the mice treated with CPX (solid line) and the untreated mice (dashed line). The reduction of porphyrins between the two groups is shown in grey dashed line (in percentage). C) Variation in the protoporphyrin IX (PROTO IX) concentration over time in the mouse group treated with CPX (solid line) and the control group (dashed line). D) Concentration of porphyrins in urine at day 45 of treatment (normalized versus creatinine concentration). E) Change in UROI levels in the liver at day 45 of treatment (weight normalized) F) CPX reduces splenomegaly after 45 days of treatment since the spleen volume of the untreated mice (top row) is higher than the CPX treated group (bottom row) Splenomegaly is directly associated with haemolytic anaemia.
Upon treatment disruption, the porphyrin levels are restored, but slowly.
Additionally, after 45 days of treatment, ciclopirox reduced in 40% the porphyrin levels in liver tissue (shown in FIG. 5-E for UROI) and the splenomegaly (FIG. 5-F)—evidence of reduced haemolysis. Moreover, there was a significant weight reduction of the spleen when comparing the ciclopirox group (mean 410±86 mg, FIG. 5-F bottom row) and the untreated group (mean 985±204 mg, FIG. 5-F top row).
A total of 16 animals (murine model of CEP) were used in the experiment and ciclopirox was mixed with the food pellets; 7 animals had food with ciclopirox (plasma levels achieved between 15 and 20 μM) and 9 animals were not given treatment. The isomer I porphyrin levels were monitored in the blood weekly. After a basal (pre-treatment) sample (day 0), treatment was started on day 2 and the first post-treatment sample was obtained on day 3, followed by weekly monitoring.

[8] = treated vs control group, up to day 45

SMILES	Porphyrin accumulation / cellular phenotype (fluorocytes) [1]	UROI level by HPLC [2]	Skin lesions [3]	C73N-UROIIIS catalytic (enzymatic) activity [4]	Direct binding to the enzyme [5]	Intracellular UROIIIS-GFP fluorescence levels [6]	Reduction of porphyrin levels in liver tissue (UROI) ([7]; after 45 days of treatment)	Splenomegaly ([7]; after 45 days of treatment)	Spleen weight (mean) ([7]; after 45 days of treatment, untreated group 985±204 mg)	Isomer I porphyrins in urine ([7]; day 45, normalized versus creatinine)	Protoporphyrin IX (PROTO IX) concentration ([7]; over time, treated vs control)	COPRO I porphyrin in blood (RBC) [7, 8]	URO I porphyrin in blood (RBC) [7, 8]
CC(C)C[C@@H](C=O)NC(=O)[C@H](CC(C)C)NC(=O)[C@H](CC(C)C)NC(=O)OCc1ccccc1 [MG] (Cbz-Leu-Leu-Leu-aldehyde)	reduces toxic porphyrin levels	reduction of UROI	decreased skin lesions										
Cc1cc(C2CCCCC2)n(O)c(=O)c1 [ciclopirox, 6-cyclohexyl-1-hydroxy-4-methyl-2(1H)-pyridone]	largely restore the normal HEK cellular phenotype	reduction of UROI		recovers the enzymatic activity	Direct binding has also been demonstrated	largely restitutes the fluorescence levels observed with WT-UROIIIS	40%	reduced	410 ± 86 mg	significantly reduced	increase the concentration	significantly reduced	significantly reduced
